The data set in a line: recombinant barcode read abundance after kanamycin selection (control-corrected) (log10(CPM+1)); higher = more efficient recombination; sequences stand for … in AGTGCAGAGAAAATCGGCCAGTTTTCTCTGCCTGCAGTCCGCATGCCGT…AGATTTATGCAGCGGACTGCCTTTCTCCCAAAGTGATAAACCGGACAGTATCATGGACCGGTTTTCCCGGTAATCCGTATTTGCAAGGTTGGTTTCACT; site = the 11-nt target. The gist of the method:
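Recombination efficiency in this pooled E. coli screen uses counts per million of barcodes at recombinant junctions, averaged and corrected against the control. The reported form is log10(CPM+1). Two replicates were plated on chloramphenicol/ampicillin LB agar as control and two on chloramphenicol/ampicillin/kanamycin with 0.1 mM IPTG.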
For “CCGCACACTTGGGTTCTAACCTGTTGCCT (site CCGCACACTAG)”, the “recombinant barcode read abundance (log10)” value came to 1.8.

With “CCGCACACTTGGGTTCTAACCTGTTGCCT (site GCGCACACTAG)”, the “recombinant barcode read abundance (log10)” value is 0.213. Regarding “CCGCACACTTGGGTTCTAACCTGTTGCCT (site TCGCACACTAG)”, the “recombinant barcode read abundance (log10)” value came to 0.305. The value for “CCGCGAGCTTGGGTTCTAACCTGTTGCCG (site CCGCGAGCTCG)” was 0.599; that for “CCGCGAGCTTGGGTTCTAACCTGTTGCCG (site GATGTGCCTAC)” was 0.137. The value for “CCGCTAGCTTGGGTTCTAACCTGTTGCCT (site ACGCTAGCTAG)” was 0.0362; that for “CCGCTAGCTTGGGTTCTAACCTGTTGCCT (site CCGCTAGCTAG)” was 0.183; that for “CCGCTAGCTTGGGTTCTAACCTGTTGCCT (site GCGCTAGCTAG)” was 0.0389.

Turning to “CCGCTAGCTTGGGTTCTAACCTGTTGCCT (site TCGCTAGCTAG)”, the “recombinant barcode read abundance (log10)” value amounted to 0.046. As to “CCGCTTACTTGGGTTCTAACCTGTTGCCT (site CCGCTCGCTAG)”, the “recombinant barcode read abundance (log10)” value was 0.0115. The figure for “CCGCTTACTTGGGTTCTAACCTGTTGCCT (site CCGCTTACTAG)” is 0.0232. The figure for “CCGGACCCTTGGGTTCTAACCTGTTGCCT (site CCGGACCCTAG)” is 1.88; for “CCGGACCCTTGGGTTCTAACCTGTTGCCT (site GCGGACGCTAG)” it is 0.232; for “CCGGAGCCTTGGGTTCTAACCTGTTGCCT (site CCGAAGCCTAG)” it is 1.42.

Take “CCGGAGCCTTGGGTTCTAACCTGTTGCCT (site CCGCAGCCTAG)”: the “recombinant barcode read abundance (log10)” value worked out at 0.271. As to “CCGGAGCCTTGGGTTCTAACCTGTTGCCT (site CCGGAGCCTAG)”, the “recombinant barcode read abundance (log10)” value turned out to be 2.41. Consider “CCGGAGCCTTGGGTTCTAACCTGTTGCCT (site CCGTAGCCTAG)”, for which the “recombinant barcode read abundance (log10)” value amounted to 0.413.

For “CCGGGGTCTTGGGTTCTAACCTGTTGCCT (site ACGGGGTCTAG)”, the “recombinant barcode read abundance (log10)” value came to 0.789. Turning to “CCGGGGTCTTGGGTTCTAACCTGTTGCCT (site CCGGGGTCTAG)”, the “recombinant barcode read abundance (log10)” value was 1.76.

On to “CCGGGGTCTTGGGTTCTAACCTGTTGCCT (site GCGGGGTCTAG)”, for which the “recombinant barcode read abundance (log10)” value was determined as 0.0665. The figure for “CCGGGGTCTTGGGTTCTAACCTGTTGCCT (site TCGGGGTCTAG)” is 0.0922; for “CCGGGTTCTTGGGTTCTAACCTGTTGCCT (site CAGGGTTCTAG)” it is 0.145. The value for “CCGGGTTCTTGGGTTCTAACCTGTTGCCT (site CCGGGTTCTAG)” was 1.79; that for “CCGGGTTCTTGGGTTCTAACCTGTTGCCT (site CGGGGTTCTAG)” was 0.16. The figure for “CCGGGTTCTTGGGTTCTAACCTGTTGCCT (site CTGGGTTCTAG)” is 0.154; for “CCGGTCCCTTGGGTTCTAACCTGTTGCAG (site CCGGTCCCTCT)” it is 2.07; for “CCGGTCCCTTGGGTTCTAACCTGTTGCAG (site GGACAGTCTAC)” it is 0.307. Consider “CCGTAAACTTGGGTTCTAACCTGTTGCCT (site CCGTAAACTAG)”, for which the “recombinant barcode read abundance (log10)” value came to 0.35. As for “CCGTAAACTTGGGTTCTAACCTGTTGCCT (site CCGTAACCTAG)”, the “recombinant barcode read abundance (log10)” value came to 0.0417. For the sequence “CCGTAAACTTGGGTTCTAACCTGTTGCCT (site CCGTAAGCTAG)”, the “recombinant barcode read abundance (log10)” value is 0.418. As for “CCGTAAACTTGGGTTCTAACCTGTTGCCT (site CCGTAATCTAG)”, the “recombinant barcode read abundance (log10)” value was found to be 0.0331. The value for “CCGTAACCTTGGGTTCTAACCTGTTGCCT (site CCGTAAACTAG)” was 0.149; that for “CCGTAACCTTGGGTTCTAACCTGTTGCCT (site CCGTAACCTAG)” was 1.57. Regarding “CCGTAACCTTGGGTTCTAACCTGTTGCCT (site CCGTAAGCTAG)”, the “recombinant barcode read abundance (log10)” value was 0.00896. The value for “CCGTAACCTTGGGTTCTAACCTGTTGCCT (site CCGTAATCTAG)” was 0.237. The value for “CCGTAATCTTGGGTTCTAACCTGTTGCCT (site CCGTAAACTAG)” was 0.0257; that for “CCGTAATCTTGGGTTCTAACCTGTTGCCT (site CCGTAACCTAG)” was 0.47; that for “CCGTAATCTTGGGTTCTAACCTGTTGCCT (site CCGTAAGCTAG)” was 0.211. The figure for “CCGTAATCTTGGGTTCTAACCTGTTGCCT (site CCGTAATCTAG)” is 0.308. “CCGTAGCCTTGGGTTCTAACCTGTTGCCT (site CCGAAGCCTAG)”: the “recombinant barcode read abundance (log10)” value worked out at 0.129. On to “CCGTAGCCTTGGGTTCTAACCTGTTGCCT (site CCGCAGCCTAG)”, for which the “recombinant barcode read abundance (log10)” value was 0.288. The figure for “CCGTAGCCTTGGGTTCTAACCTGTTGCCT (site CCGGAGCCTAG)” is 0.162; for “CCGTAGCCTTGGGTTCTAACCTGTTGCCT (site CCGTAGCCTAG)” it is 1.03. The value for “CCGTAGTCTTGGGTTCTAACCTGTTGCCT (site CCGTACTCTAG)” was 0.0425; that for “CCGTAGTCTTGGGTTCTAACCTGTTGCCT (site CCGTAGTCTAG)” was 0.899; that for “CCGTCAACTTGGGTTCTAACCTGTTGCCT (site CCGTCAACTAG)” was 0.226. In the case of “CCGTCAACTTGGGTTCTAACCTGTTGCCT (site GTACTCTCTCT)”, the “recombinant barcode read abundance (log10)” value was 0.0368. The figure for “CCGTCATCTTGGGTTCTAACCTGTTGCCT (site CCGTCATCTAG)” is 0.108; for “CCGTCATCTTGGGTTCTAACCTGTTGCCT (site CCGTCGTCTAG)” it is 0.234; for “CCGTGCCCTTGGGTTCTAACCTGTTGCCT (site CCGTGCCCTAG)” it is 0.676. The value for “CCGTGCCCTTGGGTTCTAACCTGTTGCCT (site GCGTGCCCTAG)” was 0.0432. The figure for “CCGTGGCCTTGGGTTCTAACCTGTTGCTT (site CCGTGGACTAG)” is 0.0169; for “CCGTGGCCTTGGGTTCTAACCTGTTGCTT (site CCGTGGCCTAA)” it is 0.176; for “CCGTGTCCTTGGGTTCTAACCTGTTGCCG (site CCGTGTCCTCG)” it is 1.32. For the sequence “CCGTGTCCTTGGGTTCTAACCTGTTGCCG (site GCGTGTCCTTG)”, the “recombinant barcode read abundance (log10)” value came out at 0. The figure for “CCGTTATCTTGGGTTCTAACCTGTTGCCT (site CCGATATCTAG)” is 0.0227; for “CCGTTATCTTGGGTTCTAACCTGTTGCCT (site CCGCTATCTAG)” it is 0. The figure for “CCGTTATCTTGGGTTCTAACCTGTTGCCT (site CCGGTATCTAG)” is 0.0837; for “CCGTTATCTTGGGTTCTAACCTGTTGCCT (site CCGTTATCTAG)” it is 0.0274; for “CCTAACGCTTGGGTTCTAACCTGTTGCCT (site CCTAACGCTAG)” it is 0.625. Take “CCTAACGCTTGGGTTCTAACCTGTTGCCT (site CCTCGCGCTAG)”: the “recombinant barcode read abundance (log10)” value is 0.0688. The figure for “CCTAAGACTTGGGTTCTAACCTGTTGCCC (site CCTAAGACTAG)” is 0.23; for “CCTAAGACTTGGGTTCTAACCTGTTGCCC (site CCTAAGACTCG)” it is 0.0665; for “CCTAAGACTTGGGTTCTAACCTGTTGCCC (site CCTAAGACTGG)” it is 0.16. On to “CCTAAGACTTGGGTTCTAACCTGTTGCCC (site CCTAAGACTTG)”, for which the “recombinant barcode read abundance (log10)” value worked out at 0.0914. In the case of “CCTAAGCCTTGGGTTCTAACCTGTTGCGT (site CCTAAACCTAC)”, the “recombinant barcode read abundance (log10)” value amounted to 1.23. Regarding “CCTAAGCCTTGGGTTCTAACCTGTTGCGT (site CCTAACCCTAC)”, the “recombinant barcode read abundance (log10)” value is 0.977. The value for “CCTAAGCCTTGGGTTCTAACCTGTTGCGT (site CCTAAGCCTAC)” was 1.21; that for “CCTAAGCCTTGGGTTCTAACCTGTTGCGT (site CCTAATCCTAC)” was 0.161. Consider “CCTAAGCCTTGGGTTCTAACCTGTTGCTG (site CCTAAGCCTCA)”, for which the “recombinant barcode read abundance (log10)” value came out at 0.473. Consider “CCTAAGCCTTGGGTTCTAACCTGTTGCTG (site TACCCTTCTAC)”, for which the “recombinant barcode read abundance (log10)” value came out at 0.141. The figure for “CCTAATACTTGGGTTCTAACCTGTTGCGT (site CCTAATACTAC)” is 0.988; for “CCTAATACTTGGGTTCTAACCTGTTGCGT (site CCTTAGACTAC)” it is 0.0351. The figure for “CCTAATCCTTGGGTTCTAACCTGTTGCGT (site CCTAAACCTAC)” is 0.0528. Take “CCTAATCCTTGGGTTCTAACCTGTTGCGT (site CCTAACCCTAC)”: the “recombinant barcode read abundance (log10)” value stood at 0.295.

Consider “CCTAATCCTTGGGTTCTAACCTGTTGCGT (site CCTAAGCCTAC)”, for which the “recombinant barcode read abundance (log10)” value was determined as 0.22.

With “CCTAATCCTTGGGTTCTAACCTGTTGCGT (site CCTAATCCTAC)”, the “recombinant barcode read abundance (log10)” value was found to be 1.1.
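Also: IS621 recombinase and bridge RNA in Escherichia coli cells.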
